Laboratory results reported in article PMC12518634, “The noncanonical function of liver-type phosphofructokinase potentiates the efficacy of HDAC inhibitors in cancer” (Signal Transduction and Targeted Therapy, 2025).
Like-named read-outs stand apart in the source and are kept apart here.

Legend:
783C-6 = experiment: High-throughput drug screen, CellTiter-Glo viability, 72 h; assay type: cell-based, human; design: AUC: scale not given here; settings: for DSS: DSS calculated from the dose-response curve; for MIN: MIN of the fitted dose-response curve; for AUC: area under the dose-response curve; for SLOPE: slope of the fitted dose-response curve; for EC50: 72 h, read-out: EC50
Experimental: (§1) The cells were seeded and incubated with a gradient of concentrations of drugs for 72 h, after which the cell viability was assessed (Supplementary Fig. 1a). The drug library primarily comprises epigenetic drugs, including HDAC inhibitors, DNA methyltransferase inhibitors, and histone demethylase inhibitors, as well as conventional chemotherapies and kinase inhibitors (Supplementary Fig. 1b and Supplementary Table 1). […] To identify novel therapeutics against CCA, we conducted a high-throughput screen employing PerkinElmer’s integrated robotic Explorer G3 workstations. […] Following dilution to five specified concentrations, drugs were dispensed into 96-well plates in the sequence detailed in Supplementary Fig. 1a. The CCA cell lines were subsequently plated in 384-well plates at a density of 3000 cells per well in a 20 μL total volume. After a 24-h incubation, the compounds were added to the wells and incubated for 72 h. We then quantified cell viability via the CellTiter-Glo luminescent assay according to the manufacturer’s protocol. Signal detection was carried out on a Synergy2 plate reader operated by Gen5 software (BioTek). For data processing, the raw luminescence data were processed through the Breeze pipeline for curve fitting, yielding quality control metrics (e.g., Z-factors) and drug response parameters (AUC and DSS), as adapted from previous work.[54] Drug responses were evaluated on the basis of the drug sensitivity score (DSS), and a cutoff of ≥10 was used to define efficacy. The complete drug library and screening dataset are available in Supplementary Tables 1-3.
(§2) Supplementary Fig. 1. A high-throughput drug screen to identify drugs targeting CCA. a Schematic representation of the drug screening protocol. […] Each drug was tested at five different concentrations (10, 1, 0.1, 0.01, and 0.001 μM), and each treatment was replicated twice. b Classification of drugs used for screening.

1405R3 = experiment: as above; assay type: cell-based, human; design: AUC: scale not given here; settings: 1405R3 DSRT analysis; for AUC: area under the dose-response curve; for MIN: lower asymptote of fitted dose-response curve; for SLOPE: slope of fitted dose-response curve; for EC50: fitted dose-response curve, Min.Conc.tested 1, Max.Conc.tested 10000, CellTiter-Glo, 72 h, read-out: EC50
Experimental: as §1, §2

[1] = 783C-6 DSRT analysis, CellTiter-Glo viability, fitted dose-response curve, Min.Conc.tested 1, Max.Conc.tested 10000

| Structure (SMILES) | DSS (783C-6; 783C-6 DSRT analysis) | MIN (783C-6; 783C-6 DSRT analysis) | AUC (783C-6; 783C-6 DSRT analysis) | SLOPE (783C-6; 783C-6 DSRT analysis) | DSS (1405R3) | AUC (1405R3) | MIN (1405R3) | SLOPE (1405R3) | EC50 (783C-6; [1]) [nM] | EC50 (1405R3) [nM] | EC50 (783C-6; Homo sapiens) [nM] | EC50 (1405R3; Homo sapiens) [nM] |
| --- | --- | --- | --- | --- | --- | --- | --- | --- | --- | --- | --- | --- |
| c1cncc(-c2cn[nH]n2)c1 [3-TYP] | 0 | 94.7 | 2.5 | -0.6 | 0 | 4.8 | 96.9 | -0.1 |  |  |  |  |
| Cn1cc(-c2ccc(S(=O)(=O)n3ccc(/C=C/C(=O)Nc4ccccc4N)c3)cc2)cn1 [4SC-202] | 6.7 | 48.6 | 57 | -2.5 | 3.9 | 35.8 | 57.9 | -2.3 | 780 | 1420 |  |  |
| O=C(O[C@@H]1Cc2c(O)cc(O)cc2O[C@@H]1c1cc(O)c(O)c(O)c1)c1cc(O)c(O)c(O)c1 [(-)-Epigallocatechin Gallate] | 0 | 75.7 | 22.9 |  | 0 | 0.7 | 97.6 |  |  |  |  |  |
| O=C(NO)c1cnc(NC2(c3ccccc3)CC2)nc1 [ACY-738] | 5.2 | 24.1 | 46.6 |  | 5 | 44.6 | 25.2 |  |  |  | 2460 | 2570 |
| O=C(NO)c1cnc(NC2(c3cccc(F)c3)CCCCC2)nc1 [ACY-775] | 0 | 97.3 | 2.4 | -0.3 | 0 | 0.4 | 98.9 | -0.9 |  |  |  |  |
| Cc1csc(-c2nnc(Nc3ccc(Oc4ncccc4-c4ccnc(N)n4)cc3)c3ccccc23)c1 [AMG-900] | 4.1 | 63.4 | 52.5 |  | 0.2 | 29 | 82.3 |  |  |  | 483 |  |
| N[C@@H]1CCCN(c2c(/C=C3\SC(=O)NC3=O)cccc2-c2ccccc2)C1 [AZD1208] | 0 | 87.6 | 19.2 | -0.1 | 0 | 16 | 87 | -0.2 |  |  |  |  |
| CN(C)Cc1c(C(=O)NCCOc2ccc(C(=O)NO)cc2)oc2ccccc12 [Abexinostat] | 5.3 | 6.1 | 48.2 |  | 6 | 53 | 14.8 |  |  |  | 3130 | 2420 |
| COc1cc(Nc2ncc3c(n2)-c2ccc(Cl)cc2C(c2c(F)cccc2OC)=NC3)ccc1C(=O)O [Alisertib] | 3.7 | 73.6 | 52.1 |  | 0.1 | 15.4 | 89 |  |  |  | 108 |  |
| CCN1CCN(C(=O)Cc2ccc(Nc3ncc(F)c(Nc4ccc(C(=O)Nc5ccccc5Cl)cc4)n3)cc2)CC1 [Aurora A Inhibitor I] | 4.6 | 32 | 41.2 | -2.5 | 3 | 28 | 50 | -2.5 | 2510 | 2810 |  |  |
| CNC(=O)c1ccccc1Sc1ccc2c(/C=C/c3ccccn3)n[nH]c2c1 [Axitinib] | 0 | 90.6 | 2.8 |  | 0 | 6.8 | 91.1 |  |  |  |  |  |
| Nc1ccccc1NC(=O)c1cnccn1 [BG45] | 2.2 | 83.6 | 49 | -0.3 | 0.1 | 36.3 | 83.6 | -0.1 |  |  |  |  |
| CCN1CCN(c2ccc(Nc3cc(N(C)C(=O)Nc4c(Cl)c(OC)cc(OC)c4Cl)ncn3)cc2)CC1 [BGJ398] | 8 | 7.1 | 70 |  | 5.5 | 50.1 | 7.2 |  |  |  | 1770 | 2940 |
| CC[C@@H]1C(=O)N(C)c2cnc(Nc3ccc(C(=O)NC4CCN(C)CC4)cc3OC)nc2N1C1CCCC1 [BI 2536] | 8.8 | 52.4 | 90 |  | 11.6 | 98.4 | 6.7 |  |  |  | 136 | 884 |
| COc1cc2nc(N3CCCN(C)CC3)nc(NC3CCN(Cc4ccccc4)CC3)c2cc1OC [BIX 01294] | 4.7 | 28 | 42.4 |  | 4.6 | 42.6 | 12.3 |  |  |  | 2610 | 3350 |
| Nc1ccccc1NC(=O)CCCCCCC(=O)Nc1ccccc1 [BML-210] | 0 | 97 | 3.9 | -2.5 | 0 | 5.7 | 96.1 | -0.1 |  |  |  |  |
| CC(=O)Nc1ccc(C(=O)Nc2ccc(F)cc2N)cc1 [BRD3308] | 0 | 86.9 | 3.9 | -1 | 0 | 12.9 | 91.7 | -0.1 |  |  |  |  |
| O=C(NO)c1cccc(C(=O)NCCc2ccccc2)c1 [BRD73954] | 0 | 90.9 | 14 | -0.1 | 0 | 13.2 | 91.5 | -0.1 |  |  |  |  |
| CCN(CCCOc1ccc2c(Nc3cc(CC(=O)Nc4cccc(F)c4)n[nH]3)ncnc2c1)CCOP(=O)(O)O [Barasertib] | 0 | 91.7 | 11.5 |  | 0 | 0.1 | 100 |  |  |  |  |  |
| O=C(O)CCCc1ccccc1 [Benzenebutyric acid] | 0 | 96.8 | 1.4 | -0.7 | 0 | 2.3 | 94.7 | -0.7 |  |  |  |  |
| O=S(=O)(Cl)c1ccc(-c2ccccc2)cc1 [Biphenyl-4-sulfonyl chloride] | 0 | 88.2 | 18.3 | -0.1 | 0 | 6.3 | 94 | -0.2 |  |  |  |  |
| CC(C)(C)OC(=O)Nc1ccc(-c2cc(C(=O)NCCCCCCC(=O)NO)no2)cc1 [CAY10603] | 4.4 | 30.8 | 39.5 | -2.5 | 5 | 45.4 | 20.6 | -2.5 | 2730 | 2720 |  |  |
| COc1cc2c(NC3CCN(C)CC3)cc(-c3ccc(C)o3)nc2cc1OCCCN1CCCC1 [CM272] | 13.1 | 28.5 | 107.8 | -2.5 | 6.8 | 59.8 | 15.5 | -2.5 | 311 | 1980 |  |  |
| CCS(=O)(=O)N1CCC([C@@H](C)n2c(C)c(C(=O)NCc3c(OC)cc(C)[nH]c3=O)c3ccccc32)CC1 [CPI-169] | 0 | 97.5 | 1 |  | 0 | 0.1 | 100 |  |  |  |  |  |
| Cc1sc2c(c1C)C(c1ccc(Cl)cc1)=N[C@@H](CC(N)=O)c1nnc(C)n1-2 [CPI-203] | 0 | 93.6 | 3.2 | -0.7 | 13 | 111.9 | 33.4 | -1.2 |  | 210 |  |  |
| COc1cc(C)[nH]c(=O)c1CNC(=O)c1c(C)n([C@H](C)C2CCOCC2)c2ccccc12 [CPI-360] | 0.1 | 84.8 | 36.1 |  | 0 | 11.9 | 92.3 |  |  |  |  |  |
| Cc1noc2c1-c1ccccc1C(c1ccc(Cl)cc1)=N[C@H]2CC(N)=O [CPI-0610] | 0.7 | 84.7 | 34.4 |  | 6.7 | 64.6 | 49.2 |  |  |  |  | 566 |
